Experimental data published in patent publication US7868026B2, “Therapeutic compounds” (Pfizer Inc., priority 2005, dated 2011).
Like-named read-outs stand apart in the source and are kept apart here.

Key:
Assay type in all cases: biochemical
CYP3A4 [1] = target: T1, CYP3A4 (Homo sapiens, UniProt P08684); assay: Determination of IC50 against CYP3A4 by measurement of inhibition of testosterone metabolism (human liver microsomes, 6-β-OH-testosterone by LC-MS/MS); set-up: 0.1 mg/mL human liver microsomes; settings: read-out: IC50 (Testo.)
Protocol: 2. Determination of IC50 Against CYP3A4 by Measurement of Inhibition of Testosterone Metabolism
(§1) This assay was performed using a standard 96 well plate design. […] The incubation substrate mix contains 25 μM testosterone, 0.1 mg/mL human liver microsomes, 1 mM NADPH, and potassium phosphate buffer (100 mM, pH 7.4). Quantitation of metabolite peak area ratio against an internal standard is determined by LC-MS/MS analysis. The production of 6-β-OH-testosterone from testosterone metabolism is determined after incubation for eight minutes by comparison to a standard curve generated for the metabolite
(§2) Samples were analyzed in the MRM mode using a Sciex API 3000 mass spectrometer (Applied Biosystems, Foster City, Calif.) with a Paradigm MS4 binary pump (Michrom BioResources Inc., Auburn, Calif.) and a LEAP CTC PAL autosampler (LEAP Technologies, Carrboro, N.C.). A Phenomenex Synergi, 4μ, Polar-RP, 10×2.0 mm column (Phenomenex, Torrance, Calif.) was used for separation with a mobile phase composition of: 0.1% formic acid in water (A) and: 0.1% formic acid in methanol (B). The following gradient was used: […]
(§3) The sample injection volume was 10 μL and flow was split post-column with 0.4 mL/min going to the mass spectrometer. Analysis was performed using the following API 3000 mass spectrometer settings: […]

CYP3A4 [2] = target: T1, CYP3A4; assay: Determination of compound Kiapp against recombinant CYP3A4 enzyme (BFC fluorescent substrate)
Protocol: 1. Determination of compound Kiapp
A determination of the Kiapp of the compounds of the invention against recombinant CYP3A4 enzyme was performed as follows. The assay was performed in a 100 mM sodium phosphate buffer pH 7.0, 5 mM TCEP and containing 2% dimethylformamide (final concentration) upon addition of substrate and inhibitor. A typical reaction for the determination of Kiapp values was carried at room temperature in a solid black Costar u-bottom 96-well polypropylene plate. In each well, recombinant CYP3A4 enzyme (5.5 nM or 8 nM, final concentration depending on the commercial source of the enzyme) was pre-incubated in the presence of the inhibitor for at least 30 minutes in the assay buffer. When pre-incubation was completed (˜30 min), the reaction was initiated by adding NADPH (200 uM, final concentration), and 7-benzyloxy-4-(trifluoromethyl)-coumarin (BFC) (5 uM, final concentration). The oxidation of the coumarin substrate was recorded by a 96-well plate reader POLARstar (BMG LABTECH, Offenburg, Germany).
The initial reaction velocities were measured during the first 5 min of the reaction when the release of the fluorescent product is linear with time, in the absence and in the presence of various concentrations of inhibitors. For non-partial & partial inhibitors, the Kiapp values were determined by using the equation for tight-binding inhibitor developed by Morrison, J F (Morrison J F. Biochim Biophys Acta. 1969, 185: 269-86) and by Szedlaseck S E et al. (Szedlascek, S. E., Ostafe, V., Serban, M., and Vlad, M.O. Biochem. J. 1988, 254:311-312), respectively.
The fluorescent substrate BFC was purchased from Sigma (St Louis, Mo.). Two commercial sources of recombinant enzymes were used in this study: recombinant CYP3A4−b5 enzyme (Baculosomes®) was purchased from Invitrogen (Carlsbad, Calif.) and the recombinant CYP3A4+b5 enzyme (Supersomes®) was purchased from BD Biosciences (Woburn, Mass.).

CYP3A4 [3] = target: T1, CYP3A4; assay: Determination of IC50 against CYP3A4 by measurement of inhibition of midazolam metabolism (human liver microsomes, 1-hydroxymidazolam by LC-MS/MS); set-up: 0.1 mg/mL human liver microsomes; settings: 2 μM midazolam, 0.1 mg/mL human liver microsomes
Protocol: 3. Determination of IC50 Against CYP3A4 by Measurement of Inhibition of Midazolam Metabolism
as §1, with “contains 2” for “contains 25”, “μM midazolam,” for “μM testosterone,”, “against” for “against an”, “of 1-hydroxymidazolam” for “of 6-β-OH-testosterone”, “from midazolam” for “from testosterone”, “the metabolite.” for “the metabolite”
as §2, §3

[4] = Baculo. enzyme preparation, read-out: Kiapp (BFC, Baculo.)
[5] = Super. enzyme preparation, read-out: Kiapp (BFC, Super.)

T1 sequence (P08684 whole entry): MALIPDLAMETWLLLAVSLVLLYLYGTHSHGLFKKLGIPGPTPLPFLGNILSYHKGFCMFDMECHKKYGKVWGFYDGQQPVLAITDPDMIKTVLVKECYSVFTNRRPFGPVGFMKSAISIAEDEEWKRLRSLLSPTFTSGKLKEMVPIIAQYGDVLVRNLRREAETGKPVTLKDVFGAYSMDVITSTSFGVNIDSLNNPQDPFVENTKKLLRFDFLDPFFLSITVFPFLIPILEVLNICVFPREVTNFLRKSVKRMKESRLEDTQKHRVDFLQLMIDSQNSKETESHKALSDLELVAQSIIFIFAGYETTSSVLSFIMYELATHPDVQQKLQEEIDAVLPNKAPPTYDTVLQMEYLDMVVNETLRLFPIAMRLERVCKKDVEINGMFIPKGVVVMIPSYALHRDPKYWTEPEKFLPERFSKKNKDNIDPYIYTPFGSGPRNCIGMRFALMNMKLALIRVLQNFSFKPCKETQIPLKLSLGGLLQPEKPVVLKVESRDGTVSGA

| SMILES | IC50 (CYP3A4 [1]) | Ki (CYP3A4 [2]; [4]) | Ki (CYP3A4 [2]; [5]) | IC50 (CYP3A4 [3]) |
| --- | --- | --- | --- | --- |
| CC1CCN(CC(C)(C)NC(=O)c2ccccc2S(=O)(=O)Nc2cccnc2)CC1 [Example 1, N-[1,1-dimethyl-2-(4-methylpiperidin-1-yl)ethyl]-2-[(pyridin-3-ylamino)sulfonyl]benzamide] | < 3 nM | 538 nM | 662 nM | 390 nM |
| CC(C)(CN1CCCCC1)NC(=O)c1ccccc1S(=O)(=O)Nc1cccnc1 [Example 2, N-(1,1-dimethyl-2 piperidin-1-ylethyl)-2-[(pyridin-3-ylamino)sulfonyl]benzamide] | > 750 nM | 901 nM | 570 nM | > 750 nM |
| CC(C)(CN1CCCC1)NC(=O)c1ccccc1S(=O)(=O)Nc1cccnc1 [Example 3] | > 750 nM | 858 nM | > 1000 nM | > 750 nM |
| O=C(NCc1ccccc1F)c1ccccc1S(=O)(=O)Nc1cccnc1 [Example 5, N-(2-fluorobenzyl)-2-[(pyridin-3-ylamino)sulfonyl]benzamide] | 66 nM | 55.9 nM | 5.8 nM | 41 nM |
| O=C(c1ccccc1S(=O)(=O)Nc1cccnc1)N1CC2(CCNCC2)C1 [Example 7, 2-(2,7-diazaspiro[3.5]non-2-ylcarbonyl)-N-pyridin-3-ylbenzenesulfonamide] | > 750 nM | > 1000 nM | > 1000 nM | > 750 nM |
| O=C(NC1CCCCC1)c1ccccc1S(=O)(=O)Nc1cccnc1 [Example 8, N-cyclohexyl-2-[(pyridin-3-ylamino)sulfonyl]benzamide] | 67 nM | 460 nM | 44.6 nM | 63 nM |
| O=C(NCc1ccccc1)c1ccccc1S(=O)(=O)Nc1cccnc1 [Example 12, N benzyl-2-[(pyridin-3-ylamino)sulfonyl]benzamide] | 29 nM | 270 nM | 10.5 nM | 31 nM |
| O=C(c1ccccc1S(=O)(=O)Nc1cccnc1)N1CCN(c2ccc(F)cc2)CC1 [Example 13, 2-{[4-(4-fluorophenyl)piperazin-1-yl]carbonyl}-N-pyridin-3-ylbenzenesulfonamide] | 24 nM | 251 nM | – | – |
| CCCCNC(=O)c1ccccc1S(=O)(=O)Nc1cnccc1OC [Example 19, N-butyl-2-{[(4-methoxypyridin-3-yl)amino]sulfonyl}benzamide] | 169 nM | 329 nM | – | 69 nM |
| O=C(c1ccccc1S(=O)(=O)Nc1cccnc1)N1CCCC1 [Example 20, N-pyridin-3-yl-2-(pyrrolidin-1-ylcarbonyl)benzenesulfonamide] | 445 nM | > 1000 nM | – | 379 nM |
| O=C(c1ccccc1S(=O)(=O)Nc1cccnc1)N1CCOCC1 [Example 21, 2-(morpholin-4-ylcarbonyl)-N-pyridin-3-ylbenzenesulfonamide] | > 750 nM | > 1000 nM | – | > 750 nM |
| N#Cc1cncc(NS(=O)(=O)c2ccccc2C(=O)N2CCCCC2)c1 [Example 22, N-(5-cyanopyridin-3-yl)-2-(piperidin-1-ylcarbonyl)benzenesulfonamide] | > 750 nM | > 1000 nM | – | > 750 nM |
| O=C(NC1(CO)CCCC1)c1ccccc1S(=O)(=O)Nc1cccnc1 [Example 23, N-[1-(hydroxymethyl)cyclo-pentyl]-2-[(pyridin-3-ylamino)sulfonyl]benzamide] | 325 nM | > 1000 nM | 280 nM | 103 nM |
| CCCCNC(=O)c1ccccc1S(=O)(=O)Nc1cncc(C#N)c1 [Example 24, N-butyl-2-{[(5-cyanopyridin-3-yl)amino]sulfonyl}benzamide] | > 750 nM | > 1000 nM | – | 567 nM |
| CC(C)(CNC(=O)c1ccccc1S(=O)(=O)Nc1cccnc1)N1CCOCC1 [Example 32, N-(2-methyl-2-morpholin-4-ylpropyl)-2-[(pyridin-3-ylamino)sulfonyl]benzamide] | > 750 nM | – | – | 413 nM |
| Cc1cncc(NS(=O)(=O)c2ccccc2C(=O)N(C)Cc2ccc(F)cc2)c1 [Example 146, N-(4-fluorobenzyl)-N-methyl-2-{[(5-methylpyridin-3-yl)amino]sulfonyl}benzamide] | – | 54.6 nM | 8.6 nM | 11 nM |

Next, values leading:

| IC50 (CYP3A4 [1]) | Ki (CYP3A4 [2]; [4]) | Ki (CYP3A4 [2]; [5]) | IC50 (CYP3A4 [3]) | SMILES |
| --- | --- | --- | --- | --- |
| 96 nM | 167 nM | 43.6 nM | 52 nM | CC(C)(NC(=O)c1ccccc1S(=O)(=O)Nc1cccnc1)C1CC1 [Example 4, N-(1-cyclopropyl-1-methylethyl)-2-[(pyridin-3-ylamino)sulfonyl]benzamide] |
| 9 nM | 173 nM | 4 nM | 11 nM | O=C(NCc1ccc(F)cc1)c1ccccc1S(=O)(=O)Nc1cccnc1 [Example 9, N-(4-fluorobenzyl)-2-[(pyridin-3-ylamino)sulfonyl]benzamide] |
| > 750 nM | > 1000 nM | 558 nM | 279 nM | CC(C)(C)OC(=O)N1CC2(CCN(C(=O)c3ccccc3S(=O)(=O)Nc3cccnc3)CC2)C1 [Example 10, tert-butyl 7-{2-[(pyridin-3-ylamino)sulfonyl]benzoyl}-2,7-diazaspiro[3.5]nonane-2-carboxylate] |
| > 750 nM | > 1000 nM | 563 nM | > 750 nM | CC(C)(C)OC(=O)N1CCC2(CC1)CN(C(=O)c1ccccc1S(=O)(=O)Nc1cccnc1)C2 [Example 11, tert-butyl 2-{2-[(pyridin-3-ylamino)sulfonyl]benzoyl}-2,7-diazaspiro[3.5]nonane-7-carboxylate] |
| 60 nM | 503 nM | – | – | CC(C)(C)NC(=O)c1ccccc1S(=O)(=O)Nc1cccnc1 [Example 14, N-(tert-butyl)-2-[(pyridin-3-ylamino)sulfonyl]benzamide] |
| 117 nM | 433 nM | – | 65 nM | COc1cncc(NS(=O)(=O)c2ccccc2C(=O)N2CCCCC2)c1 [Example 16, N-(5-methoxypyridin-3-yl)-2-(piperidin-1-ylcarbonyl)benzenesulfonamide] |
| 62 nM | 133 nM | – | 26 nM | CCCCNC(=O)c1ccccc1S(=O)(=O)Nc1cncc(OC)c1 [Example 17, N-butyl-2-{[(5-methoxypyridin-3-yl)amino]sulfonyl}benzamide] |
| 349 nM | 570 nM | – | 146 nM | COc1ccncc1NS(=O)(=O)c1ccccc1C(=O)N1CCCCC1 [Example 18, N-(4-methoxypyridin-3-yl)-2-(piperidin-1-ylcarbonyl)benzenesulfonamide] |
| 421 nM | 800 nM | – | – | CC(C)(CN1CCOCC1)NC(=O)c1ccccc1[S+]([O-])Cc1cccnc1 (centres unmarked) [Example 70, N-(1,1-dimethyl-2-morpholin-4-ylethyl)-2-[(pyridin-3-ylmethyl)sulfinyl]benzamide] |
| – | 43.9 nM | 5.9 nM | 18 nM | Cc1cncc(NS(=O)(=O)c2ccccc2C(=O)N(C)Cc2ccc(C(F)(F)F)cc2)c1 [Example 145, N-methyl-2-{[(5-methylpyridin-3-yl)amino]sulfonyl}-N-[4-(trifluoromethyl)benzyl]benzamide] |
| – | 209 nM | 19.2 nM | 16 nM | COc1cncc(NS(=O)(=O)c2ccccc2C(=O)NCc2cc(F)ccc2F)c1 [Example 147, N-(2,5-difluorobenzyl)-2-{[(5-methoxypyridin-3-yl)amino]sulfonyl}benzamide] |
